{"source": "ChEMBL document CHEMBL1201862", "about": "“PubChem BioAssay data set” (2004)", "key": {"[1]": {"experiment": "inhibitors of Vif binding to APOBEC3G peptide, primary screen, biochemical, TR-FRET, GST-Vif 1-94, biotin-A3G peptide, dose response retest (AID 1117319);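 further: TR-FRET signal of purified GST-Vif binding a biotinylated A3G peptide; inhibitors lower the FRET signal by blocking Vif and A3G binding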", "assay_type": "functional"}, "[2]": {"experiment": "Luminescence Cell-Based Dose Retest to Confirm Inhibitors of Cancer Stem Cells. [Related pubchem assays (depositor defined):AID2717, AID2721]", "assay_type": "functional", "conditions": "Homo sapiens"}, "Streptokinase A": {"target": "T1, Streptokinase A (Streptococcus pyogenes serotype M1, UniProt P10520)", "T1 sequence (P10520 whole entry)": "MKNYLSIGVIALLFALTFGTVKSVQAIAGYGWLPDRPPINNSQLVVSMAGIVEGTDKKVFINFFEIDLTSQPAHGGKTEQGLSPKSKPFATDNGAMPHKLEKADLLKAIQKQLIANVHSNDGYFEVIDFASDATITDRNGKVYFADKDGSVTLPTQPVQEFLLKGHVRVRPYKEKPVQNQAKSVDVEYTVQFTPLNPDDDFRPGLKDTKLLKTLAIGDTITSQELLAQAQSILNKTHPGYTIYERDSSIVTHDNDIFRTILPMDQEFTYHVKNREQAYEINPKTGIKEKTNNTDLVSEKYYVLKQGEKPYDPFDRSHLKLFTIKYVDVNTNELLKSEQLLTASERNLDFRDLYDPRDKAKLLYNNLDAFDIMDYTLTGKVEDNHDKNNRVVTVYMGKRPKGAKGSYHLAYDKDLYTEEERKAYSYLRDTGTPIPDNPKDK", "experiment": "S. pyogenes streptokinase expression inhibitors, potency, dose response, plasminogen activation absorbance, OD405 (AID 1914);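 further: secreted streptokinase activity via plasminogen activation per viability signal from cell pellet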", "assay_type": "functional, Streptococcus pyogenes M1 GAS"}, "[3]": {"experiment": "inhibitors of intracellular T. cruzi replication, confirmation, NIH3T3 host cells, beta-gal luminescence (AID 2044);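 further: luminescent beta-galactosidase reporter signal from transgenic T. cruzi replicating inside host cells; inhibitors lower the luminescence signal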", "assay_type": "functional, cell-based"}, "[4]": {"experiment": "cytotoxicity toward NIH3T3 fibroblasts, dose response, counter-screen, cell-based, ATP luminescence, mouse fibroblasts (AID 2010);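 further: cells exposed to compound for about 90 hours before reading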", "assay_type": "functional"}, "Streptococcus": {"system": "Streptococcus", "experiment": "Group A Streptococcus viability loss, dose response, counter-screen for streptokinase expression inhibitor project, luminescence, BacTiterGlo (AID 1915);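 further: potency for reduction of bacterial viability or growth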", "assay_type": "functional, organism-based"}, "[5]": {"system": "Streptococcus sp. 'group A'", "experiment": "growth inhibition of control SK(-) GAS strain, dose response, counter-screen for streptokinase expression inhibitor project, luminescence, kanamycin, BacTiterGlo, confirmation (AID 1900)", "assay_type": "functional, organism-based"}, "[6]": {"target": "Disintegrin and metalloproteinase domain-containing protein 17 (Homo sapiens, UniProt P78536)", "sequence (P78536 whole entry, the tested form may be a part)": "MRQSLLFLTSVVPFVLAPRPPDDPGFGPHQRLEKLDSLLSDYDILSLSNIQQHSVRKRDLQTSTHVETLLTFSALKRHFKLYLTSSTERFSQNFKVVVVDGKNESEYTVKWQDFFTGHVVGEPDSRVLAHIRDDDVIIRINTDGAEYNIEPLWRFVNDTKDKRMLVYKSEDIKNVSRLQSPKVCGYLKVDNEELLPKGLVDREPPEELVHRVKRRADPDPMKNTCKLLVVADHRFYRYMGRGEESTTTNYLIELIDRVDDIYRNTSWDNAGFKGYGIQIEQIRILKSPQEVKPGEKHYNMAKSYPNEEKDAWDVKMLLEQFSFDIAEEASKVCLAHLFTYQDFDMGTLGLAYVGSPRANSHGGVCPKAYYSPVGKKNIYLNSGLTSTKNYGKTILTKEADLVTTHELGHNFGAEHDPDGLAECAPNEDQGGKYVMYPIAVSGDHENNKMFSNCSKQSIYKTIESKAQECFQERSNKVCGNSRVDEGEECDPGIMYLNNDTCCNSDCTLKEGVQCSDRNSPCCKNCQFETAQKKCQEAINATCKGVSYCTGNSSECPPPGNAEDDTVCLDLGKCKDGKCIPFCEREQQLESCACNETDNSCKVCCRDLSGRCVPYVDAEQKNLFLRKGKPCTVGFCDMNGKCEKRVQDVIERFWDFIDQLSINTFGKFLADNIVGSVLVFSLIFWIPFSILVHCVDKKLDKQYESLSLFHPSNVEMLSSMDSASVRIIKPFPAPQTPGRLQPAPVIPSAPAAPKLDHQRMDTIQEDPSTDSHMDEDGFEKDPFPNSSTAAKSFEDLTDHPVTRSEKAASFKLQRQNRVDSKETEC", "experiment": "ADAM17 protease inhibitors, dose response, counter-screen for ADAM10 exosite inhibitor project, biochemical, quenched FRET substrate (AID 743253)"}, "[7]": {"target": "T2, Mannose-6-phosphate isomerase (Homo sapiens, UniProt P34949)", "T2 sequence (P34949 whole entry)": "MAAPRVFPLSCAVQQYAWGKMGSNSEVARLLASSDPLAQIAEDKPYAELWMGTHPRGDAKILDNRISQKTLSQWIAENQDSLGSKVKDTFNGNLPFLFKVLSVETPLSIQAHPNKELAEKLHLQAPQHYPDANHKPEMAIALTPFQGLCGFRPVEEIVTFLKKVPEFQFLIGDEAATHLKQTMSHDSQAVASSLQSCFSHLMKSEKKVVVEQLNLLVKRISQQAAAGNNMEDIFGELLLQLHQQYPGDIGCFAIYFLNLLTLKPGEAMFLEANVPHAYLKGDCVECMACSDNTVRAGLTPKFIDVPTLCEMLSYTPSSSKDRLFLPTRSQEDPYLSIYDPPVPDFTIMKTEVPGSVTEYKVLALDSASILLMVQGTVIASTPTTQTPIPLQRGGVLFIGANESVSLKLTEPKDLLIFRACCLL", "experiment": "human PMI inhibitors, high substrate, primary screen, biochemical, fluorescence intensity, high mannose 6-phosphate (AID 1220)"}, "Leucine aminopeptidase": {"target": "T3, Leucine aminopeptidase (Plasmodium falciparum 3D7, UniProt Q8IL11)", "T3 sequence (Q8IL11 whole entry)": "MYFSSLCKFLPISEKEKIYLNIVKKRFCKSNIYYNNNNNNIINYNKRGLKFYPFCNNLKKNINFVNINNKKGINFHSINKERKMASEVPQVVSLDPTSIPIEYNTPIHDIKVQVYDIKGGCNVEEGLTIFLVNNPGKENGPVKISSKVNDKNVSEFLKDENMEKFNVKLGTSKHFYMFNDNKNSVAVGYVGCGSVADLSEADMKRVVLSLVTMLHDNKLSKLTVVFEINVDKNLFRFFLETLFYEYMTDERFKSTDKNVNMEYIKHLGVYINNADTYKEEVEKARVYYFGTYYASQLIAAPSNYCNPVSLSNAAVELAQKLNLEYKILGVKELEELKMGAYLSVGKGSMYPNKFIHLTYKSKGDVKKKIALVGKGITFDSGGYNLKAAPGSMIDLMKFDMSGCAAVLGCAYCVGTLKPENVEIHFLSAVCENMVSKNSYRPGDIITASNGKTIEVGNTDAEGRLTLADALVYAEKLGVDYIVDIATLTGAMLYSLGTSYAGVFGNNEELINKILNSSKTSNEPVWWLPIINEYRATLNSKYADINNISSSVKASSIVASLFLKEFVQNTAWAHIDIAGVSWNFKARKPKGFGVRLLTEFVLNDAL", "experiment": "P. falciparum M17LAP inhibitors, primary screen, biochemical, fluorogenic H-Leu-NHMec substrate, 1536-well (AID 1619)", "assay_type": "functional"}, "[8]": {"experiment": "Vero cell cytotoxicity, dose response, cytotoxicity control for Vif-APOBEC3G degradation inhibitor project, Vero cells (AID 1117358)", "assay_type": "functional", "conditions": "Human immunodeficiency virus 1, Vero"}, "[9]": {"experiment": "inhibitors of clade B AD8 Env fusion, dose response, cell-based, cherry-pick (AID 652062);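 further: potency is for inhibitors of fusion seen as a drop in luminescence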", "assay_type": "functional"}, "[10]": {"experiment": "inhibitors of HIV Env-driven cell fusion, dose response, cherry-pick (AID 652057)", "assay_type": "functional, cell-based"}, "[11]": {"target": "Endoplasmic reticulum aminopeptidase 1 (Homo sapiens, UniProt Q9NZ08)", "sequence (Q9NZ08 whole entry)": "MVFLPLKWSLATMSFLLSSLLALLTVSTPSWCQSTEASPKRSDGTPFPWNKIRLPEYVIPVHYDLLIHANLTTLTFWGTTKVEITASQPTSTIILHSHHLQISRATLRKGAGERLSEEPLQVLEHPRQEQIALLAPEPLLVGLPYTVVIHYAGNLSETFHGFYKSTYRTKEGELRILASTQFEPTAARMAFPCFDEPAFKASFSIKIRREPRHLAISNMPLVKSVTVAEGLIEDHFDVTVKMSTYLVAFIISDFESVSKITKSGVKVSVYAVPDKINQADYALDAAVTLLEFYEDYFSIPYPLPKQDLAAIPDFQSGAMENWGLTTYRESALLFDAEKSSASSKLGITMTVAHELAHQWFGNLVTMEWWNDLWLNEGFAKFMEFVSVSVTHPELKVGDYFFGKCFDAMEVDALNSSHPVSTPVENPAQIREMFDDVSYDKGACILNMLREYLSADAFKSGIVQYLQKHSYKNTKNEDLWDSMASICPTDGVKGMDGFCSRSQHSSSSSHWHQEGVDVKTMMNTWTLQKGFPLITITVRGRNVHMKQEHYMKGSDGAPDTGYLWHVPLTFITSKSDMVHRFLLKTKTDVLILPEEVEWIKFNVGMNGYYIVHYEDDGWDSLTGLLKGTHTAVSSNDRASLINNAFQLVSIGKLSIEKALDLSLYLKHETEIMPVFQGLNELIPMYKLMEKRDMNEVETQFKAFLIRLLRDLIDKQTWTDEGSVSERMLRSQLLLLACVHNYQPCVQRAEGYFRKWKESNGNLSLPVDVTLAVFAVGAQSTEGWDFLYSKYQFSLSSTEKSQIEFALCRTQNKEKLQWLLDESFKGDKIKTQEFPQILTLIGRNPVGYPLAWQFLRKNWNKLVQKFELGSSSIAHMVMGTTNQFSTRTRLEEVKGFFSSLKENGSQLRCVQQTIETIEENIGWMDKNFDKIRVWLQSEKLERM", "experiment": "ERAP1 aminopeptidase inhibitors, dose response, biochemical, cherry-pick, set 2, plate reader (AID 743314)"}, "[12]": {"experiment": "cytotoxicity in KRAS-transformed pancreatic duct cells, primary screen, cell-based, fluorescence, HTS (AID 431);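 further: cell line used: HPDE-C7K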", "assay_type": "functional", "conditions": "Homo sapiens"}, "[13]": {"experiment": "cytotoxicity in HPDE-C7 cells, cell-based, fluorescence, HTS (AID 430)", "assay_type": "functional", "conditions": "Homo sapiens"}}, "note": "The source made the active and inactive calls.", "data": [{"smiles": "COc1ccc(CCN2C(=O)c3cccnc3C2=O)cc1OC", "values": [{"measurement": "IC50", "setting": "[1]", "value": "> 100 µM (active)"}]}, {"smiles": "O=[N+]([O-])c1ccc(S(=O)(=O)Nc2ccc(-c3csc(-c4ccccc4)n3)cc2)cc1", "values": [{"measurement": "AC50", "setting": "[2]", "value": "2.33 µM (active)"}, {"measurement": "EC50", "setting": "Streptokinase A", "value": "> 150 µM (not active)"}, {"measurement": "EC50", "setting": "[3]", "value": "0.118 µM (active)"}, {"measurement": "EC50", "setting": "[4]", "value": "> 60 µM (not active)"}, {"measurement": "EC50", "setting": "Streptococcus", "value": "8.29 µM (active)"}, {"measurement": "EC50", "setting": "[5]", "value": "3.77 µM (active)"}, {"measurement": "IC50", "setting": "[6]", "value": "> 69.5 µM (inactive)"}]}, {"smiles": "CC(C)c1ccc(C(=O)CSc2nc[nH]n2)cc1", "values": [{"measurement": "IC50", "setting": "[7]", "value": "9.69 µM (active)"}, {"measurement": "IC50", "setting": "Leucine aminopeptidase", "value": "33 µM (active)"}]}, {"smiles": "N#Cc1cn(CCOc2ccccc2F)c2ccccc12", "values": [{"measurement": "CC50", "setting": "[8]", "value": "> 40 µM (active)"}]}, {"smiles": "Cc1noc(C)c1S(=O)(=O)N(C)C[C@@H]1Oc2ccc(NC(=O)Cc3ccccc3)cc2CC(=O)N([C@H](C)CO)C[C@@H]1C", "values": [{"measurement": "AC50", "setting": "[9]", "value": "2.92 µM (active)"}, {"measurement": "AC50", "setting": "[10]", "value": "< 0.26 µM (active)"}]}, {"smiles": "O=C(NCc1ccccc1)[C@@H]1[C@@H](CO)[C@@H]2Cn3c(ccc(/C=C/c4ccccc4)c3=O)[C@H]1N2CC1CC1", "values": [{"measurement": "AC50", "setting": "[11]", "value": "11.1 µM (active)"}]}, {"smiles": "CN1[C@H](C(=O)NC2CCC2)[C@@H](CO)[C@@H]2Cn3c(ccc(/C=C/c4ccccc4)c3=O)[C@@H]21", "values": [{"measurement": "AC50", "setting": "[11]", "value": "18 µM (active)"}]}, {"smiles": "O=C([C@@H]1[C@@H](CO)[C@@H]2Cn3c(ccc(/C=C/c4ccccc4)c3=O)[C@@H]2N1CC1CC1)N1CCOCC1", "values": [{"measurement": "AC50", "setting": "[11]", "value": "13.7 µM (active)"}]}, {"smiles": "CCN1[C@@H]2c3ccc(/C=C/c4ccccc4)c(=O)n3C[C@H]1[C@H](CO)[C@H]2C(=O)N1CCOCC1", "values": [{"measurement": "AC50", "setting": "[11]", "value": "6.11 µM (active)"}]}, {"smiles": "CCOC(=O)C1=C(C)N=C(C)/C(=C(/O)OC)C1c1cccc(Cl)c1Cl", "note": "(centres undefined)", "values": [{"measurement": "EC50", "setting": "[12]", "value": "10.4 µM (active)"}, {"measurement": "EC50", "setting": "[13]", "value": "8.98 µM (active)"}]}]}
